Data taken from patent publication EP0001395A2, “Substituted N-phenyl-2,5-pyrrolidinones, method for their preparation and their use as fungicides” (BAYER AG, priority 1977, dated 1979).

Key:
[1] = test system: Botrytis cinerea; assay: Botrytis test (beans) / protective; format: in vivo; conditions: protective spray on Phaseolus vulgaris, inoculation after 24 h, lesion size rated 3 days after inoculation; compared with Tetramethyl-thiuramidisulfid
Source text: Botrytis-Test (Bohnen) / protektiv
• Lösungsmittel: 4,7 Gewichtsteile Aceton • Dispergiermittel: 0,3 Gewichtsteile Alkyl-arylpolyglykoläther • Wasser: 95,0 Gewichtsteile
Man vermischt die für die gewünschte Wirkstoffkonzentration in der Spritzflüssigkeit nötige Wirkstoffmenge mit der angegebenen Menge des Lösungsmittels und verdünnt das Konzentrat mit der angegebenen Menge Wasser, welches die genannten Zusätze enthält.
Mit der Spritzflüssigkeit bespritzt man Pflanzen von Phaseolus vulgaris im 2-Blattstadium bis zur Tropfnässe. Nach 24 Stunden werden auf jedes Blatt 2 kleine mit Botrytis cinerea bewachsene Agarstückchen aufgelegt. Die inokulierten Pflanzen werden in einer abgedunkelten, feuchten Kammer bei 20°C aufgestellt. 3 Tage nach der Inokulation wird die Größe der Befallsflecken auf den Blättern bonitiert.
Die erhaltenen Boniturwerte werden auf Prozent Befall umgerechnet. 0 % bedeutet keinen Befall, 100 % bedeutet, daß der Befallsfleck vollständig ausgebildet ist.

[2] = test system: Pellicularia sasakii; assay: Pellicularia test (rice plants); format: in vivo; conditions: spray on rice plants, infection of leaf sheaths rated after 5 to 8 days; compared with Zinksalz der Athylenbis-dithiocarbamidsäure
Source text: • Lösungsmittel: 11,75 Gewichtsteile Aceton • Dispergiermittel: 0,75 Gewichtsteile Alkyl-arylpolyglykoläther • Wasser: 987,50 Gewichtsteile • andere Zusätze: - Gewichtsteile -
Man vermischt die für die gewünschte Wirkstoffkonzentration in der Spritzflüssigkeit nötige Wirkstoffmenge mit der angegebenen Menge des Lösungsmittels und des Dispergiermittels und verdünnt das Konzentrat mit der angegebenen Menge Wasser.
Mit der Spritzflüssigkeit bespritzt man 30 etwa 2-4 Wochen alte Reispflanzen bis zur Tropfnässe. Die Pflanzen verbleiben bis zum Abtrocknen in einem Gewächshaus bei Temperaturen von 22 bis 24°C und einer relativen Luftfeuchtigkeit von etwa 70 %. Die Pflanzen werden mit einer auf Malzagar gezogenen Kultur von Pellicularia sasakii inokuliert und bei 28 bis 30°C sowie 100 % relativer Luftfeuchtigkeit aufgestellt.
Bei den mit Pellicularia sasakii infizierten Pflanzen wird der Befall nach 5 bis 8 Tagen an den Blattscheiden ebenfalls im Verhältnis zur unbehandelten, aber infizierten Kontrolle bestimmt. Die Auswertung erfolgt in Wertzahlen von 1 bis 9. 1 bedeutet 100%ige Wirkung, 3= gute Wirkung, 5 = mäßige Wirkung und 9 = keine Wirkung.

O=C1CC(C2C=CCC2)C(=O)N1c1cc(Cl)cc(Cl)c1 (centres unmarked) [Beispiel 1, N-(3,5-Dichlorphenyl)-△ ^2-cyclopenten-1-yl-bernsteinsäureimid] was tested, and the Wirkung [1] was “gute, dem bekannten Tetramethyl-thiuramidisulfid überlegene Wirkung” and the Wirkung [2] was “gute, dem bekannten Zinksalz der Athylenbis-dithiocarbamidsäure überlegene Wirkung”.
